According to patent US11287431B2, “Method of testing for pulmonary hypertension” (TOHOKU UNIVERSITY, priority 2014, dated 2022):

Test system: pulmonary artery smooth muscle cells (PASMC) in idiopathic pulmonary arterial hypertension (IPAH) patients
Test: Selenoprotein P protein secretion by IPAH-PASMC at hypoxia, western blot of whole cell lysates and conditioned medium
Format: cell-based, human
Conditions: IPAH-PASMC cultured 24 hours at hypoxia (oxygen concentration: 2%) in the presence of fasudil (hydroxyfasudil concentration: 10 μM), versus normoxia and hypoxia alone
Source text: The response of pulmonary artery smooth muscle cells (PASMC) in idiopathic pulmonary arterial hypertension (IPAH) patients (hereinafter also referred to as IPAH-PASMC) to hypoxia stimulation was observed.
Primary cell lines were established from pulmonary vascular smooth muscle in idiopathic pulmonary arterial hypertension patients, in accordance with the following document: Ogawa A, Nakamura K, Matsubara H, Fujio H, Ikeda T, Kobayashi K, Miyazaki I, Asanuma M, Miyaji K, Miura D, Kusano K F, Date H, Ohe T, Circulation, 2005; 112: 1806-1812. The pulmonary vascular smooth muscle in idiopathic pulmonary arterial hypertension patients was isolated from pulmonary arteries having an outer diameter of 1.5 mm or less.
IPAH-PASMC was cultured in D-MEM medium supplemented by 10% FBS (fetal bovine serum) at 37° C. under constant temperature and constant humidity conditions at 95% air and 5% CO2 in accordance with a usual method. In this test, passage 4 to 7 cells at a confluence of 70 to 80% were used. […]
After culturing, whole cell lysates and a conditioned medium were prepared for each sample, and selenoprotein P protein was detected by western blot analysis.

Compound: O=S(=O)(c1cccc2cnccc12)N1CCCNCC1 [fasudil]
- extracellular secretion of selenoprotein P protein (into the medium): enhanced secretion of selenoprotein P protein was not observed
